Literature values as cited in US6335015B1, “Method of the prophylactic treatment of mastitis” (Astacarotene AB, priority 1997, dated 2002).

Assays:
sows = details: feed supplemented with astaxanthin prior to parturition and during lactation
[1] = biological tests

Compound: CC1=C(/C=C/C(C)=C/C=C/C(C)=C/C=C/C=C(C)/C=C/C=C(C)/C=C/C2=C(C)C(=O)[C@@H](O)CC2(C)C)C(C)(C)C[C@H](O)C1=O [astaxanthin]
- piglets born alive (sows): more piglets born alive
- antioxidative properties compared to other carotenoids [1]: clearly the best antioxidative properties
